Numbers after ± are expanded uncertainties.

For data set [1] the following is noted: 295 K; 77 kPa; Liquid; transient hot wire.
Data set [2] can be described thus: wn = mass fraction of the nth substance listed. The conditions noted are these: 295 K, 77 kPa, Liquid, transient hot wire.
The nature of data set [3]: heat capacity at constant pressure per volume; wn = mass fraction of the nth substance listed. To be noted: 295 K, 77 kPa, Liquid, From thermal conductivity and thermal effusivity measured separately.

Consider `OCCO` [1,2-ethanediol], for which the thermal conductivity in data set [1] was found to be 0.254 ± 0.01 W/m/K.

On to `CC(C)CC(C)(C)C` [2,2,4-trimethylpentane], for which, in data set [1], the thermal conductivity is recorded as 0.096 ± 0.004 W/m/K.

With `CC(C)CC(C)(C)C` [2,2,4-trimethylpentane] + CCCCCCC, the thermal conductivity in data set [2] (w1 = 0.2) was 0.116 ± 0.004 W/m/K; in data set [2] (w1 = 0.4), 0.113 ± 0.004 W/m/K; in data set [2] (w1 = 0.6), 0.107 ± 0.004 W/m/K; in data set [2] (w1 = 0.8), 0.104 ± 0.004 W/m/K; in data set [2] (w1 = 1), 0.096 ± 0.004 W/m/K. Moreover, the heat capacity in data set [3] (w1 = 0.2) is given as 1390000 ± 90000 J/K/m3; in data set [3] (w1 = 0.4), 1310000 ± 90000 J/K/m3; in data set [3] (w1 = 0.6) it was 1310000 ± 80000 J/K/m3; in data set [3] (w1 = 0.8) it was 1290000 ± 80000 J/K/m3; in data set [3] (w1 = 1), 1340000 ± 90000 J/K/m3.

On to `OCC(O)CO` [glycerol], for which, in data set [1], the thermal conductivity is on record as 0.289 ± 0.01 W/m/K.

With `CCCCCCC` [heptane], the thermal conductivity in data set [1] amounted to 0.119 ± 0.004 W/m/K.

With `CCCCCCC` [heptane] + CC(C)CC(C)(C)C, the thermal conductivity in data set [2] (w2 = 0) came out at 0.119 ± 0.004 W/m/K. Moreover, the heat capacity in data set [3] (w2 = 0) is given as 1480000 ± 100000 J/K/m3.

With `CO` [methanol], in data set [1], the thermal conductivity was found to be 0.208 ± 0.008 W/m/K.

In the case of `O` [water], the thermal conductivity in data set [1] came to 0.6 ± 0.02 W/m/K.

(Values after the NIST ThermoML archive (doi:10.1016/j.tca.2018.07.003).)
